Calls of active or inactive are those of the source. For most assays here, no stated cut-off is given here; in the data, actives have a measured Kd and inactives only a lower limit.
Each compound was assayed against Mitotic checkpoint serine/threonine-protein kinase BUB1 (Homo sapiens, UniProt O43683).
Chain of Mitotic checkpoint serine/threonine-protein kinase BUB1 (O43683 whole entry): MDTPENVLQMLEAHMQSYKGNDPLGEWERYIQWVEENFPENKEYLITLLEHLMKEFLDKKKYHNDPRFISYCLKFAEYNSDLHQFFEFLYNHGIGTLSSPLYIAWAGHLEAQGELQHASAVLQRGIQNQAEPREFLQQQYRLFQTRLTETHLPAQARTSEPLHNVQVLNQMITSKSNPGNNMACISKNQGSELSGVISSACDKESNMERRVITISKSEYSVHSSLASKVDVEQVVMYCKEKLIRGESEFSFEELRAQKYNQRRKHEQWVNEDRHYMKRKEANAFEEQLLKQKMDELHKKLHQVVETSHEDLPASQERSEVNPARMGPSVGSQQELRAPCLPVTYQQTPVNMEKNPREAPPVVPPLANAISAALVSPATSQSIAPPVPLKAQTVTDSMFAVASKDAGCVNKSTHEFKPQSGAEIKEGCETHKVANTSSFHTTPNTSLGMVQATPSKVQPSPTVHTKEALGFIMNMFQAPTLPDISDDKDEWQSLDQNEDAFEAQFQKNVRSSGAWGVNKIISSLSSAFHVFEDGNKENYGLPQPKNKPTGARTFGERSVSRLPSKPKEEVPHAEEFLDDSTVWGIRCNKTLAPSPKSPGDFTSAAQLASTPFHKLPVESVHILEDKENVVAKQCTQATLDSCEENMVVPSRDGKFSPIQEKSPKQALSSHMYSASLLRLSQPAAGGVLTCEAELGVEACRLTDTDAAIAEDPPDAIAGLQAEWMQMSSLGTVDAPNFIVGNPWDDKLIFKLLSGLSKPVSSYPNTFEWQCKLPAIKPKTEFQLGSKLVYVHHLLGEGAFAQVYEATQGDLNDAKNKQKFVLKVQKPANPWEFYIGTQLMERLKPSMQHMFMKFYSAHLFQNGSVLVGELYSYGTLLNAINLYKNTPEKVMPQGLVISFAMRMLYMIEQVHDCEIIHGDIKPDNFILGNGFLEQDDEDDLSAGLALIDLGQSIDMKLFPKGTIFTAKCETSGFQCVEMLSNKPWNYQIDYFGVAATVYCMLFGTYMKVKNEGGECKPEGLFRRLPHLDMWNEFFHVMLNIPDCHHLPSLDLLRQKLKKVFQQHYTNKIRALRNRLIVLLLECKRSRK

| Structure (SMILES) | Kd |
| --- | --- |
| COc1cc2nccc(Oc3ccc(NC(=O)Nc4cc(C)on4)c(Cl)c3)c2cc1OC [TIVOZANIB] | > 30 µM (inactive) |
| CC(C)Nc1cc(-c2c[nH]c(C(=O)N[C@H](CO)c3cccc(Cl)c3)c2)c(Cl)cn1 [ULIXERTINIB] | > 30 µM (inactive) |
| O=C(Nc1ccc(-c2ccnc(Nc3ccc(N4CCOCC4)cc3)n2)cc1)C1CCCN1 (stereo not drawn) [XL-019] | 0.39 µM (active) |

What follows are compounds tested against T1, Ferrochelatase, mitochondrial (Homo sapiens, UniProt P22830).
T1 sequence (P22830 whole entry): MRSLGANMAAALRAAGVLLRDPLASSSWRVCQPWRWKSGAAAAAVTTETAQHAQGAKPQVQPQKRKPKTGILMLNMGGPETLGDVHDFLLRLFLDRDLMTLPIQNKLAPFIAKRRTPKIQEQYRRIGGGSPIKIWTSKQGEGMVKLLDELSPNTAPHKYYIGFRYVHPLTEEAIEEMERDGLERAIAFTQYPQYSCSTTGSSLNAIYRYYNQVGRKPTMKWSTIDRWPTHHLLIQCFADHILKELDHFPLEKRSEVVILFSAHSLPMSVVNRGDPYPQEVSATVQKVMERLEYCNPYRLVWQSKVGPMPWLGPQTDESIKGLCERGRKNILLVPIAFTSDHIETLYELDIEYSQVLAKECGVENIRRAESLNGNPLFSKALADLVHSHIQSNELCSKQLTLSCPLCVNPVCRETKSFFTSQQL

| Structure (SMILES) | Kd |
| --- | --- |
| O=C(Nc1cccc(Cl)c1)Nc1ncc(CCNc2ncnc3ccsc23)s1 [SNS-314] | > 30 µM (inactive) |
| COc1cc2nccc(Oc3ccc(NC(=O)Nc4cc(C)on4)c(Cl)c3)c2cc1OC [TIVOZANIB] | > 30 µM (inactive) |
| CC(C)Nc1cc(-c2c[nH]c(C(=O)N[C@H](CO)c3cccc(Cl)c3)c2)c(Cl)cn1 [ULIXERTINIB] | > 30 µM (inactive) |
| O=C(Nc1ccc(-c2ccnc(Nc3ccc(N4CCOCC4)cc3)n2)cc1)C1CCCN1 (stereo not drawn) [XL-019] | > 30 µM (inactive) |

What follows are compounds tested against T2, Interleukin-1 receptor-associated kinase 3 (Homo sapiens, UniProt Q9Y616).
T2 sequence (Q9Y616 whole entry): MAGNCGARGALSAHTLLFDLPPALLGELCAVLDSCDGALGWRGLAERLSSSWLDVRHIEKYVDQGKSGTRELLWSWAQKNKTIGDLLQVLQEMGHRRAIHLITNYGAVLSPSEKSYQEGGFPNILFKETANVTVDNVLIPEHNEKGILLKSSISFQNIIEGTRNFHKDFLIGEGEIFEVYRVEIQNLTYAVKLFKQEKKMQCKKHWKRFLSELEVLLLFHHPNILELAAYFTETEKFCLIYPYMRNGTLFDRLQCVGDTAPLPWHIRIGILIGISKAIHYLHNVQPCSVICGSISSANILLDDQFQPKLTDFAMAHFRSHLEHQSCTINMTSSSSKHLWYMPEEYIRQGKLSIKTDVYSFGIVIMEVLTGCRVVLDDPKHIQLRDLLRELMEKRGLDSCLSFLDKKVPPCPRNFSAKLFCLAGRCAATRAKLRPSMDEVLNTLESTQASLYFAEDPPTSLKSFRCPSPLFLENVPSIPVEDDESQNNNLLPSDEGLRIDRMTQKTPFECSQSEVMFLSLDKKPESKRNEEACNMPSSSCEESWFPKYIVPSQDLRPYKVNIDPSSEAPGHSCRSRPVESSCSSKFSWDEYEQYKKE

| Structure (SMILES) | Kd |
| --- | --- |
| O=C(Nc1cccc(Cl)c1)Nc1ncc(CCNc2ncnc3ccsc23)s1 [SNS-314] | > 30 µM (inactive) |
| COc1cc2nccc(Oc3ccc(NC(=O)Nc4cc(C)on4)c(Cl)c3)c2cc1OC [TIVOZANIB] | > 30 µM (inactive) |
| CC(C)Nc1cc(-c2c[nH]c(C(=O)N[C@H](CO)c3cccc(Cl)c3)c2)c(Cl)cn1 [ULIXERTINIB] | > 30 µM (inactive) |
| O=C(Nc1ccc(-c2ccnc(Nc3ccc(N4CCOCC4)cc3)n2)cc1)C1CCCN1 (stereo not drawn) [XL-019] | > 30 µM (inactive) |

These compounds were tested against Mitogen-activated protein kinase kinase kinase kinase 5 (Homo sapiens, UniProt Q9Y4K4).
Chain of Mitogen-activated protein kinase kinase kinase kinase 5 (Q9Y4K4 whole entry): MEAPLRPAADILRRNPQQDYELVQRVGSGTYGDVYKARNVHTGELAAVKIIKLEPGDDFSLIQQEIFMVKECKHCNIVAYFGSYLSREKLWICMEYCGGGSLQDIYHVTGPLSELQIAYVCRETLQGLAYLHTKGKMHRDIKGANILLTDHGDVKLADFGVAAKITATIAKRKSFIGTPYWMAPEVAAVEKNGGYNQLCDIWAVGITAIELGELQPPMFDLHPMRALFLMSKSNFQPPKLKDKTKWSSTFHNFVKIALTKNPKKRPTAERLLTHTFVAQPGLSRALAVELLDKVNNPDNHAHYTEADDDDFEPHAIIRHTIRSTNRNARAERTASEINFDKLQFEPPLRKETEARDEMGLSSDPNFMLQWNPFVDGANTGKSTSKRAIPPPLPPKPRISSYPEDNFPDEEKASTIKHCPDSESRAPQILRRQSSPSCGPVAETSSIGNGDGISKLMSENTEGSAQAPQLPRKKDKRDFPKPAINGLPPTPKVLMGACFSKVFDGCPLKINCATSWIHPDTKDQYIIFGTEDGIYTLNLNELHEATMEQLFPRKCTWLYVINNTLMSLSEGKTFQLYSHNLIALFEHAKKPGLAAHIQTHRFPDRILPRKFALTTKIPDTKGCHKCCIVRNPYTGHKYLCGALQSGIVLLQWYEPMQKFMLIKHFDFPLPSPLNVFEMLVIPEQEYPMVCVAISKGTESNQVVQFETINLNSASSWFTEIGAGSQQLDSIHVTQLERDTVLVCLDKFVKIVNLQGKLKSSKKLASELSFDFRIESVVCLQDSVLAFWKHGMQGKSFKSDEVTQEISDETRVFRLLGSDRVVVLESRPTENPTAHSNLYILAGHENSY

| Structure (SMILES) | Kd |
| --- | --- |
| CC(C)Nc1cc(-c2c[nH]c(C(=O)N[C@H](CO)c3cccc(Cl)c3)c2)c(Cl)cn1 [ULIXERTINIB] | > 30 µM (inactive) |
| O=C(Nc1ccc(-c2ccnc(Nc3ccc(N4CCOCC4)cc3)n2)cc1)C1CCCN1 (stereo not drawn) [XL-019] | > 30 µM (inactive) |

These compounds were tested against T3, DNA replication licensing factor MCM4 (Homo sapiens, UniProt P33991).
T3 sequence (P33991 whole entry): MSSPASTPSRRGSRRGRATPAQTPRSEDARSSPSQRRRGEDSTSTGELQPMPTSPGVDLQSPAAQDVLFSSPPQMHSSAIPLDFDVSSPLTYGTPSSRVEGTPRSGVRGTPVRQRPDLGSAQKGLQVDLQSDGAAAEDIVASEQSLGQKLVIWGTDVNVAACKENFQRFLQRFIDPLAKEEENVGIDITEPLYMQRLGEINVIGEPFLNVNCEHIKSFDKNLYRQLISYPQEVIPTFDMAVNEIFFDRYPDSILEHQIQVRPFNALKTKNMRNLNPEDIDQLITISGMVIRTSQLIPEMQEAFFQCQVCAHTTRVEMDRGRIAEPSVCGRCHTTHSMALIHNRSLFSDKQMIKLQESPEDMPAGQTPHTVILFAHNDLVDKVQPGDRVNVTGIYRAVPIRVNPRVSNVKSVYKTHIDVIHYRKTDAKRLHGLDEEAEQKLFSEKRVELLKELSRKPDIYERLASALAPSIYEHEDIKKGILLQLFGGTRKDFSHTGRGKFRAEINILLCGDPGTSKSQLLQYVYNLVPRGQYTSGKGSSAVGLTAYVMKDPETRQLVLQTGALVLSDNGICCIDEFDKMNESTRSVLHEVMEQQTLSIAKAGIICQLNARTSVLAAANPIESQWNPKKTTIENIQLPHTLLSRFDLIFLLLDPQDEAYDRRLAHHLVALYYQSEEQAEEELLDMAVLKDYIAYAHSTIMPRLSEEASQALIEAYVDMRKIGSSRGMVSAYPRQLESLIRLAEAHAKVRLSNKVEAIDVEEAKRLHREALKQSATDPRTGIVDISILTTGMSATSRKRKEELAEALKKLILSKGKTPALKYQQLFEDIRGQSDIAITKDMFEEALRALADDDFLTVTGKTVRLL

| Structure (SMILES) | Kd |
| --- | --- |
| O=C(Nc1cccc(Cl)c1)Nc1ncc(CCNc2ncnc3ccsc23)s1 [SNS-314] | > 30 µM (inactive) |
| COc1cc2nccc(Oc3ccc(NC(=O)Nc4cc(C)on4)c(Cl)c3)c2cc1OC [TIVOZANIB] | > 30 µM (inactive) |
| CC(C)Nc1cc(-c2c[nH]c(C(=O)N[C@H](CO)c3cccc(Cl)c3)c2)c(Cl)cn1 [ULIXERTINIB] | > 30 µM (inactive) |
| O=C(Nc1ccc(-c2ccnc(Nc3ccc(N4CCOCC4)cc3)n2)cc1)C1CCCN1 (stereo not drawn) [XL-019] | > 30 µM (inactive) |

What follows are compounds tested against Protein-tyrosine kinase 6 (Homo sapiens, UniProt Q13882).
Chain of Protein-tyrosine kinase 6 (Q13882 whole entry): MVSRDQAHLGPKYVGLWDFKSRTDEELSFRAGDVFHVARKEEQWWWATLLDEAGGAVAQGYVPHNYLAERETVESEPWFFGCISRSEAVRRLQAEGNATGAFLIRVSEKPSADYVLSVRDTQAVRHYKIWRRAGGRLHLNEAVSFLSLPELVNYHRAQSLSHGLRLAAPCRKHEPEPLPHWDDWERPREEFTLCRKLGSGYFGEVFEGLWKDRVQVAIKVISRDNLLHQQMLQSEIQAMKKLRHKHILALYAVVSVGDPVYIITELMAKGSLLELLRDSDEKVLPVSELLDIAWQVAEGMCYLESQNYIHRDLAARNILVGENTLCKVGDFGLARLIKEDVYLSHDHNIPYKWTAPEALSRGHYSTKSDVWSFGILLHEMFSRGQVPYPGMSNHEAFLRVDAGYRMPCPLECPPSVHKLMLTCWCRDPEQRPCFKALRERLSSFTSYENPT

| Structure (SMILES) | Kd |
| --- | --- |
| COc1cc2nccc(Oc3ccc(NC(=O)Nc4cc(C)on4)c(Cl)c3)c2cc1OC [TIVOZANIB] | 0.787 µM (active) |
| CC(C)Nc1cc(-c2c[nH]c(C(=O)N[C@H](CO)c3cccc(Cl)c3)c2)c(Cl)cn1 [ULIXERTINIB] | > 30 µM (inactive) |
| O=C(Nc1ccc(-c2ccnc(Nc3ccc(N4CCOCC4)cc3)n2)cc1)C1CCCN1 (stereo not drawn) [XL-019] | > 30 µM (inactive) |

What follows are compounds tested against T4, Ras-related protein Rab-27A (Homo sapiens, UniProt P51159).
T4 sequence (P51159 whole entry): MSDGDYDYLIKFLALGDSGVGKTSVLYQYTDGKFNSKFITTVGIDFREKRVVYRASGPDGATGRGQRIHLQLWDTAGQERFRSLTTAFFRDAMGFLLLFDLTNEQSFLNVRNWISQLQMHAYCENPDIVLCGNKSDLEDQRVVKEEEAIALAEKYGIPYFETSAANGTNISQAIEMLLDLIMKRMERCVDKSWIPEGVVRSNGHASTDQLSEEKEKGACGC

| Structure (SMILES) | Kd |
| --- | --- |
| O=C(Nc1cccc(Cl)c1)Nc1ncc(CCNc2ncnc3ccsc23)s1 [SNS-314] | > 30 µM (inactive) |
| COc1cc2nccc(Oc3ccc(NC(=O)Nc4cc(C)on4)c(Cl)c3)c2cc1OC [TIVOZANIB] | > 30 µM (inactive) |
| CC(C)Nc1cc(-c2c[nH]c(C(=O)N[C@H](CO)c3cccc(Cl)c3)c2)c(Cl)cn1 [ULIXERTINIB] | > 30 µM (inactive) |
| O=C(Nc1ccc(-c2ccnc(Nc3ccc(N4CCOCC4)cc3)n2)cc1)C1CCCN1 (stereo not drawn) [XL-019] | > 30 µM (inactive) |

These compounds were tested against Ras-related protein Rab-6A (Homo sapiens, UniProt P20340).
Chain of Ras-related protein Rab-6A (P20340 whole entry): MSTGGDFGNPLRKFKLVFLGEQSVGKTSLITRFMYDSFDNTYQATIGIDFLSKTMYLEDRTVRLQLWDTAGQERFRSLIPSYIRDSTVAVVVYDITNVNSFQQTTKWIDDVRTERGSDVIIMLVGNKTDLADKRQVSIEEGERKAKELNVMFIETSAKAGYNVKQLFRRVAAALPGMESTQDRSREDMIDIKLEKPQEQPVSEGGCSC

| Structure (SMILES) | Kd |
| --- | --- |
| O=C(Nc1cccc(Cl)c1)Nc1ncc(CCNc2ncnc3ccsc23)s1 [SNS-314] | > 30 µM (inactive) |
| COc1cc2nccc(Oc3ccc(NC(=O)Nc4cc(C)on4)c(Cl)c3)c2cc1OC [TIVOZANIB] | > 30 µM (inactive) |
| CC(C)Nc1cc(-c2c[nH]c(C(=O)N[C@H](CO)c3cccc(Cl)c3)c2)c(Cl)cn1 [ULIXERTINIB] | > 30 µM (inactive) |
| O=C(Nc1ccc(-c2ccnc(Nc3ccc(N4CCOCC4)cc3)n2)cc1)C1CCCN1 (stereo not drawn) [XL-019] | > 30 µM (inactive) |

The compounds below were run against Rho-associated protein kinase 1 (Homo sapiens, UniProt Q13464).

| Structure (SMILES) | Kd |
| --- | --- |
| COc1cc2nccc(Oc3ccc(NC(=O)Nc4cc(C)on4)c(Cl)c3)c2cc1OC [TIVOZANIB] | > 30 µM (inactive) |

These compounds were tested against T5, ADP/ATP translocase 3 (Homo sapiens, UniProt P12236).
T5 sequence (P12236 whole entry): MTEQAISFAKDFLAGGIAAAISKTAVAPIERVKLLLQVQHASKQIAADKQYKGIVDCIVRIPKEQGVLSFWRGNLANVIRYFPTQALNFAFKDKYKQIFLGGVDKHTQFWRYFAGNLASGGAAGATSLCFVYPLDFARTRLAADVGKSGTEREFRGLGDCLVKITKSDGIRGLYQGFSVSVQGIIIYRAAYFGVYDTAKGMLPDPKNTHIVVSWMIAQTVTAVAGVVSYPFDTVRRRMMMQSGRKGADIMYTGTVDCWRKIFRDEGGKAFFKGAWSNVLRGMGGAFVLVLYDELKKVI

| Structure (SMILES) | Kd |
| --- | --- |
| O=C(Nc1cccc(Cl)c1)Nc1ncc(CCNc2ncnc3ccsc23)s1 [SNS-314] | > 30 µM (inactive) |
| COc1cc2nccc(Oc3ccc(NC(=O)Nc4cc(C)on4)c(Cl)c3)c2cc1OC [TIVOZANIB] | > 30 µM (inactive) |
| CC(C)Nc1cc(-c2c[nH]c(C(=O)N[C@H](CO)c3cccc(Cl)c3)c2)c(Cl)cn1 [ULIXERTINIB] | > 30 µM (inactive) |
| O=C(Nc1ccc(-c2ccnc(Nc3ccc(N4CCOCC4)cc3)n2)cc1)C1CCCN1 (stereo not drawn) [XL-019] | > 30 µM (inactive) |

These compounds were tested against Proto-oncogene tyrosine-protein kinase Src (Homo sapiens, UniProt P12931).
Chain of Proto-oncogene tyrosine-protein kinase Src (P12931 2-536 limits assumed): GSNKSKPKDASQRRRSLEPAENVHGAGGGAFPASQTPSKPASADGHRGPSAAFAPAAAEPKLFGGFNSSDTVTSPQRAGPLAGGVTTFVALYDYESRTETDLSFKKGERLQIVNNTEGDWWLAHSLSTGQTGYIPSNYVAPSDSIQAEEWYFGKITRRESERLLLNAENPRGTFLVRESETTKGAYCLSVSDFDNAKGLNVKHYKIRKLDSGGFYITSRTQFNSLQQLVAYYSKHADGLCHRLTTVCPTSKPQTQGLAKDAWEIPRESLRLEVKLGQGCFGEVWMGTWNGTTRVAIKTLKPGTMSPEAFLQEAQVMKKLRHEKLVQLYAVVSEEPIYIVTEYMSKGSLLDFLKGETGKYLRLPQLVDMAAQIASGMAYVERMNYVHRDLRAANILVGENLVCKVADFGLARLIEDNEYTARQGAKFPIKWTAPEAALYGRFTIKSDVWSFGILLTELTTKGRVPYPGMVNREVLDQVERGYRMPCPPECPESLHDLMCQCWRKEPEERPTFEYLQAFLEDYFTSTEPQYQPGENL

| Structure (SMILES) | Kd |
| --- | --- |
| CC(C)Nc1cc(-c2c[nH]c(C(=O)N[C@H](CO)c3cccc(Cl)c3)c2)c(Cl)cn1 [ULIXERTINIB] | > 30 µM (inactive) |
| O=C(Nc1ccc(-c2ccnc(Nc3ccc(N4CCOCC4)cc3)n2)cc1)C1CCCN1 (stereo not drawn) [XL-019] | > 30 µM (inactive) |

Each compound was assayed against Serine/threonine-protein kinase 16 (Homo sapiens, UniProt O75716).
Chain of Serine/threonine-protein kinase 16 (O75716 whole entry): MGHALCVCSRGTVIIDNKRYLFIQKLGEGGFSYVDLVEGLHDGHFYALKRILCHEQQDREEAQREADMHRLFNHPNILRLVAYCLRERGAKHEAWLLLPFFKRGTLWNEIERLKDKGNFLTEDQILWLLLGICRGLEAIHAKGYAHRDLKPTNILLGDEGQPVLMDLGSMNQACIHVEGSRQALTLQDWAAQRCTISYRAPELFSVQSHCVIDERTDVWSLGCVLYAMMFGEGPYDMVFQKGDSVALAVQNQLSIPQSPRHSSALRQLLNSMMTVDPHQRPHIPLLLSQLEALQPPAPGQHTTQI

| Structure (SMILES) | Kd |
| --- | --- |
| O=C(Nc1cccc(Cl)c1)Nc1ncc(CCNc2ncnc3ccsc23)s1 [SNS-314] | > 30 µM (inactive) |
| COc1cc2nccc(Oc3ccc(NC(=O)Nc4cc(C)on4)c(Cl)c3)c2cc1OC [TIVOZANIB] | > 30 µM (inactive) |
| CC(C)Nc1cc(-c2c[nH]c(C(=O)N[C@H](CO)c3cccc(Cl)c3)c2)c(Cl)cn1 [ULIXERTINIB] | > 30 µM (inactive) |
| O=C(Nc1ccc(-c2ccnc(Nc3ccc(N4CCOCC4)cc3)n2)cc1)C1CCCN1 (stereo not drawn) [XL-019] | > 30 µM (inactive) |

The compounds below were run against Tyrosine-protein kinase Yes (Homo sapiens, UniProt P07947).
Chain of Tyrosine-protein kinase Yes (P07947 whole entry): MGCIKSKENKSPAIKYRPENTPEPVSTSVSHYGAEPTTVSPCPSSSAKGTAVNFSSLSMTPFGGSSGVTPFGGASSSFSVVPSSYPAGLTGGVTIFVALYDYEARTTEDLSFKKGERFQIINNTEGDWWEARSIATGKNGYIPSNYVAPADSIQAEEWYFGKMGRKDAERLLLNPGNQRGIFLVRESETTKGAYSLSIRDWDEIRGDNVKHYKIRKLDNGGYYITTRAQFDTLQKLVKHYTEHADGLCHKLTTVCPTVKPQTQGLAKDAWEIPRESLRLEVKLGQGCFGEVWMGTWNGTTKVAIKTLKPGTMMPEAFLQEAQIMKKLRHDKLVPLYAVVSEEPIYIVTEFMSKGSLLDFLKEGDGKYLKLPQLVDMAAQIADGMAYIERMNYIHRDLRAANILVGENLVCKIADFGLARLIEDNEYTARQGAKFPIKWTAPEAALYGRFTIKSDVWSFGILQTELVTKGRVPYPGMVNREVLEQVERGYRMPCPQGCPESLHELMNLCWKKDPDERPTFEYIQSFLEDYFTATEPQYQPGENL

| Structure (SMILES) | Kd |
| --- | --- |
| O=C(Nc1cccc(Cl)c1)Nc1ncc(CCNc2ncnc3ccsc23)s1 [SNS-314] | > 30 µM (inactive) |
| COc1cc2nccc(Oc3ccc(NC(=O)Nc4cc(C)on4)c(Cl)c3)c2cc1OC [TIVOZANIB] | > 30 µM (inactive) |
| CC(C)Nc1cc(-c2c[nH]c(C(=O)N[C@H](CO)c3cccc(Cl)c3)c2)c(Cl)cn1 [ULIXERTINIB] | > 30 µM (inactive) |
| O=C(Nc1ccc(-c2ccnc(Nc3ccc(N4CCOCC4)cc3)n2)cc1)C1CCCN1 (stereo not drawn) [XL-019] | > 30 µM (inactive) |
